Test results reported in ChEMBL document CHEMBL4800729 (2021).

Legend:
[1] = molecular target: T1, Alpha-2C adrenergic receptor (Homo sapiens) (UniProt P18825); details: Compound concentration 10.0 uM
T1 sequence (whole entry): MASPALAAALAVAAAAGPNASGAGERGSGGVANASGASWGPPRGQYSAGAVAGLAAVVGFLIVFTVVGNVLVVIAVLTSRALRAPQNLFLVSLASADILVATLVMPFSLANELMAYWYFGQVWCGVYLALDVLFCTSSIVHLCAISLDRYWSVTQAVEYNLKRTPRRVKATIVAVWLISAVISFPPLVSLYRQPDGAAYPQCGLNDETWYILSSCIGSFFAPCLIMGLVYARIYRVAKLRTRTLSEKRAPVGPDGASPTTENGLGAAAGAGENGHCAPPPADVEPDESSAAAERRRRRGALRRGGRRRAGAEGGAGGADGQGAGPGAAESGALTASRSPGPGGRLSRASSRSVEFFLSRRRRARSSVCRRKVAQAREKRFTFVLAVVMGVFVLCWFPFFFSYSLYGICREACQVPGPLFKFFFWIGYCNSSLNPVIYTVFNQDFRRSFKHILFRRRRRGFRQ

[2] = molecular target: Casein kinase I isoform epsilon (Homo sapiens) (UniProt P49674); test: CK1epsilon(h) Millipore kinase panel; details: Compound concentration 1.0 uM
Casein kinase I isoform epsilon (Homo sapiens), sequence (P49674 whole entry, looked up, canonical isoform): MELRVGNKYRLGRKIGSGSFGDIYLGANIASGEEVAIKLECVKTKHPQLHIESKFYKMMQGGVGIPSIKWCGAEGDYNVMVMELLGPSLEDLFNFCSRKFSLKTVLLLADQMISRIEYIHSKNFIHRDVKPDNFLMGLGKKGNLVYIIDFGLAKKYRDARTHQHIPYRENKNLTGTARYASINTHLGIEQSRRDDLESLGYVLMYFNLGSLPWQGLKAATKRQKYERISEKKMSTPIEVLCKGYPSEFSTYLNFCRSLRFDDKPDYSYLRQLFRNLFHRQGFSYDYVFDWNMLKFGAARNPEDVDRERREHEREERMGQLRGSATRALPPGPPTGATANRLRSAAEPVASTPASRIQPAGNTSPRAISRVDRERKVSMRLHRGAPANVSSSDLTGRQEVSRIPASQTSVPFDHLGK

[3] = molecular target: T2, Alpha-2B adrenergic receptor (Homo sapiens) (UniProt P18089); details: Compound concentration 10.0 uM
T2 sequence (whole entry): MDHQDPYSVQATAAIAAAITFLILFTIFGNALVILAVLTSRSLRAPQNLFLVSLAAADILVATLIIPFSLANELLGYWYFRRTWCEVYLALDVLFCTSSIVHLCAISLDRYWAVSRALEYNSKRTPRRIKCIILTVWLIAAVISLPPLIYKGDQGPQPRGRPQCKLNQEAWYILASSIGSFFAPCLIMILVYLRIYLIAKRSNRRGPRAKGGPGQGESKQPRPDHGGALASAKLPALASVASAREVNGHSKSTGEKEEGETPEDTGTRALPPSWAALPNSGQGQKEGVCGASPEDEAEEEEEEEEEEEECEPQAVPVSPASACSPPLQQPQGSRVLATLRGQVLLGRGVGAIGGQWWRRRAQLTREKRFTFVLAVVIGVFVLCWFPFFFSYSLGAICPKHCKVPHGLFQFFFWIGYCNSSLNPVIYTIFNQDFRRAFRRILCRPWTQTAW

[4] = molecular target: MAP kinase-interacting serine/threonine-protein kinase 2 (Homo sapiens) (UniProt Q9HBH9); test: Mnk2(h) Millipore kinase panel; details: Compound concentration 1.0 uM
[5] = molecular target: Mitogen-activated protein kinase kinase kinase 5 (Homo sapiens) (UniProt Q99683); test: ASK1(h) Millipore kinase panel; details: Compound concentration 1.0 uM
[6] = molecular target: Hepatocyte growth factor receptor (Homo sapiens) (UniProt P08581); test: Met(h) Millipore kinase panel; details: Compound concentration 1.0 uM
Hepatocyte growth factor receptor (Homo sapiens), sequence (P08581 whole entry): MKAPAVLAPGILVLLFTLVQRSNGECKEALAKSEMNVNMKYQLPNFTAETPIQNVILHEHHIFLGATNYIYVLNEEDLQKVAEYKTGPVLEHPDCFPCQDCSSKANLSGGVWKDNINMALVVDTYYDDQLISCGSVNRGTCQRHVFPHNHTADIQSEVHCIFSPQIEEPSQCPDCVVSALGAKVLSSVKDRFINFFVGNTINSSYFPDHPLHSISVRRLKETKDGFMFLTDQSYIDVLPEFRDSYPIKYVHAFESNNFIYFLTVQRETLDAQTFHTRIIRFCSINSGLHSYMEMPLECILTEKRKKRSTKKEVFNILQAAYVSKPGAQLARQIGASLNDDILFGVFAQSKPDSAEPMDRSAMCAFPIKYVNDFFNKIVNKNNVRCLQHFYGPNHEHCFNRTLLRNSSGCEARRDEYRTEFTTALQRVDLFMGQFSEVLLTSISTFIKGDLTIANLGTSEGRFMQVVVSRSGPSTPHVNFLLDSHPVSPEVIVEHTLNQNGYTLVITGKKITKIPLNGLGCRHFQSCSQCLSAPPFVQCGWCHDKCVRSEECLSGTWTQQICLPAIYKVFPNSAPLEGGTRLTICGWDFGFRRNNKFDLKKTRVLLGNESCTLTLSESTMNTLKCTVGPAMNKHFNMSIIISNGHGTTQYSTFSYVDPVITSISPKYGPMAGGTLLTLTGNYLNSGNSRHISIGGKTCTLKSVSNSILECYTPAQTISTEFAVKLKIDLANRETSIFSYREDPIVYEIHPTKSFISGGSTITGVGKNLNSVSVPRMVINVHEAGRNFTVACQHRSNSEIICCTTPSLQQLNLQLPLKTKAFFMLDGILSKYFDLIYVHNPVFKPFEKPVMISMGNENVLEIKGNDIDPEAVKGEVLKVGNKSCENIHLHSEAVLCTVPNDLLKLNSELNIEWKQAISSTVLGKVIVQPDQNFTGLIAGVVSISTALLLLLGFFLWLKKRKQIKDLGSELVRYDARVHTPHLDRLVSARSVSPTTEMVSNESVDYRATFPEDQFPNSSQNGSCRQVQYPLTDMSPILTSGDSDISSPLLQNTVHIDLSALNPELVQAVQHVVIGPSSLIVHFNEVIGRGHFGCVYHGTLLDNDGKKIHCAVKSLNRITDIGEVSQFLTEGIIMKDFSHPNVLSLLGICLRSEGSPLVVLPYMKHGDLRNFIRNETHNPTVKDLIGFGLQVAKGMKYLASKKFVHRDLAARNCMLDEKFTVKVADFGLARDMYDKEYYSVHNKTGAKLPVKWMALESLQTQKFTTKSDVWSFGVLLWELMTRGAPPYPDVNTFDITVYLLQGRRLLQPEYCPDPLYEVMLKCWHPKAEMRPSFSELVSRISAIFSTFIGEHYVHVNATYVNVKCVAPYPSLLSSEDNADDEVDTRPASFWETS

[7] = molecular target: Mitogen-activated protein kinase 13 (Homo sapiens) (UniProt O15264); test: SAPK4(h) Millipore kinase panel; details: Compound concentration 1.0 uM
[8] = molecular target: T1, Alpha-2C adrenergic receptor (Homo sapiens); details: Compound concentration 10.0 uM; remark: listed apart in the source
[9] = molecular target: Serine/threonine-protein kinase SIK2 (Homo sapiens) (UniProt Q9H0K1); test: SIK2(h) Millipore kinase panel; details: Compound concentration 1.0 uM
[10] = molecular target: Muscle, skeletal receptor tyrosine-protein kinase (Homo sapiens) (UniProt O15146); test: MuSK(h) Millipore kinase panel; details: Compound concentration 1.0 uM
[11] = molecular target: Serine/threonine-protein kinase 35 (Homo sapiens) (UniProt Q8TDR2); test: CLIK1(h) Millipore kinase panel; details: Compound concentration 1.0 uM
[12] = molecular target: Ephrin type-A receptor 5 (Homo sapiens) (UniProt P54756); test: EphA5(h) Millipore kinase panel; details: Compound concentration 1.0 uM
Ephrin type-A receptor 5 (Homo sapiens), sequence (P54756 whole entry): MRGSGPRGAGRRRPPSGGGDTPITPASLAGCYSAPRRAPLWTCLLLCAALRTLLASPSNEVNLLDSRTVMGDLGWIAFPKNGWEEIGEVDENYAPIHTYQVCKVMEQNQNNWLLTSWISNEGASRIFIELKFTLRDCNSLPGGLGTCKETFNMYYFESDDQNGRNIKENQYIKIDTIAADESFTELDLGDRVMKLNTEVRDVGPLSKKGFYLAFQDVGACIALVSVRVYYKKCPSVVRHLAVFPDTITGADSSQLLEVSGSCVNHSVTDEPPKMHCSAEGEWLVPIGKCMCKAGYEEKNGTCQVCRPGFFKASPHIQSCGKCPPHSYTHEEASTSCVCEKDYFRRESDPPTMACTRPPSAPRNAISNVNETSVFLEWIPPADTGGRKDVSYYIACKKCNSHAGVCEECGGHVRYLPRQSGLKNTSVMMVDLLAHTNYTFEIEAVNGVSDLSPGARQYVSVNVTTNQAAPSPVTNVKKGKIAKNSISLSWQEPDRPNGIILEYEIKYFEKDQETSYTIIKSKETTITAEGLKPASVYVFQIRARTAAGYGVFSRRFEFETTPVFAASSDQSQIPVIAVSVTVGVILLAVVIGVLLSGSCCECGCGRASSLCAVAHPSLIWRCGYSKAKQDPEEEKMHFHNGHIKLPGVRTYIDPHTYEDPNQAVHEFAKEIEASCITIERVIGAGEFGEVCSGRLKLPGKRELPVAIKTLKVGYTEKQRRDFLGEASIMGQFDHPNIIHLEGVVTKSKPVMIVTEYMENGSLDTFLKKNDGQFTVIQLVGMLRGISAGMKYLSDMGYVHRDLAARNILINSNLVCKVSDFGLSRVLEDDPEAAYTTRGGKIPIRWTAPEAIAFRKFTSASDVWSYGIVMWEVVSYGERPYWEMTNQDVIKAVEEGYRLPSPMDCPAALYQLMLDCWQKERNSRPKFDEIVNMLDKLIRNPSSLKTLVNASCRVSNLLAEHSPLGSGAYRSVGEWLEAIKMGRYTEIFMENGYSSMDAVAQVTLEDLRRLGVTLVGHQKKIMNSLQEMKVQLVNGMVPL

[13] = molecular target: Receptor tyrosine-protein kinase erbB-2 (Homo sapiens) (UniProt P04626); test: ErbB2(h) Millipore kinase panel; details: Compound concentration 1.0 uM
[14] = molecular target: Tyrosine-protein kinase ABL1 (Homo sapiens) (UniProt P00519); test: Abl(h) Millipore kinase panel; details: Compound concentration 1.0 uM
[15] = molecular target: Serine/threonine-protein kinase Sgk1 (Homo sapiens) (UniProt O00141); test: SGK(h) Millipore kinase panel; details: Compound concentration 1.0 uM
[16] = molecular target: Interleukin-1 receptor-associated kinase 1 (Homo sapiens) (UniProt P51617); test: IRAK1(h) Millipore kinase panel; details: Compound concentration 1.0 uM
[17] = molecular target: Mitogen-activated protein kinase 9 (Homo sapiens) (UniProt P45984); test: JNK2alpha2(h) Millipore kinase panel; details: Compound concentration 1.0 uM
Mitogen-activated protein kinase 9 (Homo sapiens), sequence (P45984 whole entry, looked up): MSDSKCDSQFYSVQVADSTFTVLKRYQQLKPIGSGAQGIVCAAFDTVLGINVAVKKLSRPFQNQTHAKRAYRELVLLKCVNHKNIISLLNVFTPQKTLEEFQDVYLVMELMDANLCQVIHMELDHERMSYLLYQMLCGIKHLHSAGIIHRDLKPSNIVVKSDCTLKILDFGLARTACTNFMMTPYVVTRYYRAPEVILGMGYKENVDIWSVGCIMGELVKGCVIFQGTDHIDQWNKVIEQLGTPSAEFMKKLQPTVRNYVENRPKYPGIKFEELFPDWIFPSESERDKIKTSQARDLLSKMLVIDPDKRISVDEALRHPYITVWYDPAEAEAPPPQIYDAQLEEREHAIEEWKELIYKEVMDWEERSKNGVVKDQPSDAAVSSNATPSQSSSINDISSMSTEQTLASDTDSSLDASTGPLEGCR

[18] = molecular target: Serine/threonine-protein kinase WNK3 (Homo sapiens) (UniProt Q9BYP7); test: WNK3(h) Millipore kinase panel; details: Compound concentration 1.0 uM
[19] = molecular target: Phosphodiesterase 3 (Homo sapiens) (UniProt Q14432+Q13370); test: Inhibition of Phosphodiesterase PDE3 at compound concentration of 10.0 uM in the Eurofins-Panlabs enzyme assay (Eurofins_assay_152000); type: protein assay; parameters: substrate with concentration 1.01 uM [3H] cAMP + cAMP, incubation time 20 min, incubation temperature 25 C; details: Compound concentration 10.0 uM
[20] = molecular target: Bone morphogenetic protein receptor type-2 (Homo sapiens) (UniProt Q13873); test: BMPR2(h) Millipore kinase panel; details: Compound concentration 1.0 uM
[21] = molecular target: 5-hydroxytryptamine receptor 2C (Homo sapiens) (UniProt P28335); details: Compound concentration 10.0 uM
[22] = molecular target: Mitogen-activated protein kinase kinase kinase 21 (Homo sapiens) (UniProt Q5TCX8); test: MLK4(h) Millipore kinase panel; details: Compound concentration 1.0 uM
Mitogen-activated protein kinase kinase kinase 21 (Homo sapiens), sequence (Q5TCX8 whole entry): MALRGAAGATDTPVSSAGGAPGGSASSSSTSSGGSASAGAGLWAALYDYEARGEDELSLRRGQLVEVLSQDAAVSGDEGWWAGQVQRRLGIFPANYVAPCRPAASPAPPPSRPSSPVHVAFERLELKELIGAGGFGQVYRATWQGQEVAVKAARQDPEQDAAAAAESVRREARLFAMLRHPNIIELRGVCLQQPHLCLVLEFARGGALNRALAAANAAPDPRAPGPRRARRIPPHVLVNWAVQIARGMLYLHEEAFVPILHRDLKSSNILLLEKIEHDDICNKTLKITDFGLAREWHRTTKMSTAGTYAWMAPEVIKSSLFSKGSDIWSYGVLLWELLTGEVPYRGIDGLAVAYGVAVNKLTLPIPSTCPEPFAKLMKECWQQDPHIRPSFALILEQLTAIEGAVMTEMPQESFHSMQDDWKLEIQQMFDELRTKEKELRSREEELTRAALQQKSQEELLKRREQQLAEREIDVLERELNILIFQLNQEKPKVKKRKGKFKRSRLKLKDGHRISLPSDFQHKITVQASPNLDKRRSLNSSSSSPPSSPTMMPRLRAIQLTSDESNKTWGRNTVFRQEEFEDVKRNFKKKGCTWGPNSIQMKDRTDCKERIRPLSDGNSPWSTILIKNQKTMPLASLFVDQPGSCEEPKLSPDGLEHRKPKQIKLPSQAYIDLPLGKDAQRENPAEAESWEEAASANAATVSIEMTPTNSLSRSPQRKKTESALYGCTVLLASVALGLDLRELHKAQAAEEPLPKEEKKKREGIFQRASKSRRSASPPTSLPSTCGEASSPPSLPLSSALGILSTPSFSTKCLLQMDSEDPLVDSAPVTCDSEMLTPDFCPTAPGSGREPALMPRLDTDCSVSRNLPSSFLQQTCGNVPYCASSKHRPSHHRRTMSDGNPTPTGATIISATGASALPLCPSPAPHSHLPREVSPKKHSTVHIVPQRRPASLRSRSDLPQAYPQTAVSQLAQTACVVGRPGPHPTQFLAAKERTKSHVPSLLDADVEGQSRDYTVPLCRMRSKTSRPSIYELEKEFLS

[23] = molecular target: Ephrin type-B receptor 3 (Homo sapiens) (UniProt P54753); test: EphB3(h) Millipore kinase panel; details: Compound concentration 1.0 uM
[24] = molecular target: NUAK family SNF1-like kinase 1 (Homo sapiens) (UniProt O60285); test: ARK5(h) Millipore kinase panel; details: Compound concentration 1.0 uM
[25] = molecular target: Cannabinoid receptor 2 (Homo sapiens) (UniProt P34972); details: Compound concentration 10.0 uM
Cannabinoid receptor 2 (Homo sapiens), sequence (P34972 whole entry, canonical isoform): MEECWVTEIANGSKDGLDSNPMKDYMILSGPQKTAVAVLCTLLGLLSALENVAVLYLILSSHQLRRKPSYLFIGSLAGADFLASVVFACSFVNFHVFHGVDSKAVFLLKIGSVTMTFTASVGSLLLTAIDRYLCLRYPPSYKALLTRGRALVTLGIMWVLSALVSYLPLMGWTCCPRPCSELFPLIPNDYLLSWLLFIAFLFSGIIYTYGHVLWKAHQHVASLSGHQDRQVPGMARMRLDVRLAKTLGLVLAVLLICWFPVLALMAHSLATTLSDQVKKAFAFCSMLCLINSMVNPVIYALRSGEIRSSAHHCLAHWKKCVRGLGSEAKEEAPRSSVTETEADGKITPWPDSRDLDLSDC

[26] = molecular target: Casein kinase I isoform alpha (Homo sapiens) (UniProt P48729); test: CK1alpha(h) Millipore kinase panel; details: Compound concentration 1.0 uM
Casein kinase I isoform alpha (Homo sapiens), sequence (P48729 2-337 limits assumed): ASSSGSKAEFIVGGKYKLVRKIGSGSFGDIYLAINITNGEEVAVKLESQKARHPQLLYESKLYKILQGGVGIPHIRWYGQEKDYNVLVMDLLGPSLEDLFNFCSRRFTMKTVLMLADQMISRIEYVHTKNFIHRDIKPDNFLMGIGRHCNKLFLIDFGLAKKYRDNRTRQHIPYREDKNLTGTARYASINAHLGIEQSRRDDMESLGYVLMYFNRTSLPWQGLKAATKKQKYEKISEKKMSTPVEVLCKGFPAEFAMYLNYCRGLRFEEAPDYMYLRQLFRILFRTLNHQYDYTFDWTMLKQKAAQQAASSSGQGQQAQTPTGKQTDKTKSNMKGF

[27] = molecular target: Casein kinase I isoform gamma-1 (Homo sapiens) (UniProt Q9HCP0); test: CK1gamma1(h) Millipore kinase panel; details: Compound concentration 1.0 uM
[28] = molecular target: PI3-kinase p110-delta/p85-alpha (Homo sapiens) (UniProt P27986+O00329); test: PI3 Kinase (p110d/p85a)(h) Millipore kinase panel; type: protein-complex assay; details: Compound concentration 1.0 uM
[29] = molecular target: Calcium/calmodulin-dependent protein kinase type 1D (Homo sapiens) (UniProt Q8IU85); test: CaMKIdelta(h) Millipore kinase panel; details: Compound concentration 1.0 uM
[30] = molecular target: Serine/threonine-protein kinase D2 (Homo sapiens) (UniProt Q9BZL6); test: PKD2(h) Millipore kinase panel; details: Compound concentration 1.0 uM
[31] = molecular target: Sodium-dependent dopamine transporter (Homo sapiens) (UniProt Q01959); details: Compound concentration 10.0 uM
[32] = molecular target: Dual specificity mitogen-activated protein kinase kinase 2 (Homo sapiens) (UniProt P36507); test: MEK2(h) Millipore kinase panel; details: Compound concentration 1.0 uM
[33] = molecular target: Glutamate receptor ionotropic, kainate (Rattus norvegicus) (UniProt P22756+Q01812+P42260+P42264+Q63273); details: Compound concentration 10.0 uM
[34] = molecular target: 5-hydroxytryptamine receptor 2A (Homo sapiens) (UniProt P28223); details: Compound concentration 10.0 uM
[35] = molecular target: [Pyruvate dehydrogenase (acetyl-transferring)] kinase isozyme 2, mitochondrial (Homo sapiens) (UniProt Q15119); test: PDHK2(h) Millipore kinase panel; details: Compound concentration 1.0 uM

SMILES: CC[C@@H](Nc1c(C#N)c(-c2ccc(-c3cccc(C)c3F)cc2)nc2cnccc12)C(=O)O [BAY-091]
- inhibition [1]: 4%
- inhibition [2]: 8.85%
- inhibition [3]: -1.14%
- inhibition [4]: 3.39%
- inhibition [5]: -9.98%
- inhibition [6]: 2.36%
- inhibition [7]: -3.58%
- inhibition [8]: -6.87%
- inhibition [9]: 3.68%
- inhibition [10]: 5.1%
- inhibition [11]: 9.55%
- inhibition [12]: 15.8%
- inhibition [13]: 8.53%
- inhibition [14]: 12.1%
- inhibition [15]: -6.56%
- inhibition [16]: -3.31%
- inhibition [17]: -1.41%
- inhibition [18]: -1.89%
- inhibition [19]: 74%
- inhibition [20]: 4.45%
- inhibition [21]: -9.38%
- inhibition [22]: 9.6%
- inhibition [23]: -5.61%
- inhibition [24]: 4.55%
- inhibition [25]: 1%
- inhibition [26]: 3.17%
- inhibition [27]: 8.17%
- inhibition [28]: 30.9%
- inhibition [29]: 4.68%
- inhibition [30]: 4.37%
- inhibition [31]: 29.5%
- inhibition [32]: -9.56%
- inhibition [33]: -2%
- inhibition [34]: -8.43%
- inhibition [35]: 12.4%
